Laboratory results as given in US20230293708A1, “CONJUGATE OF SAPONIN AND SINGLE-DOMAIN ANTIBODY, PHARMACEUTICAL COMPOSITION COMPRISING SAID CONJUGATE, THERAPEUTIC USE THEREOF” (SAPREME TECHNOLOGIES B.V., priority 2020, published 2023).
Read-outs that look alike come from different tables or passages of the source.

Legend:
Test in all cases: Cell viability (MTS) assay, cell killing
Type in all cases: cell-based, human
[1] = test system: A431 cells
Protocol: (§1) After treatment the cells were incubated for 72 hr at 37° C. before the cell viability was determined by a MTS-assay, performed according to the manufacturer's instruction (CellTiter 96® AQueous One Solution Cell Proliferation Assay, Promega). Briefly, the MTS solution was diluted 20× in DMEM without phenol red (PAN-Biotech GmbH) supplemented with 10% FBS. The cells were washed once with 200 μL/PBS well, after which 100 μL diluted MTS solution was added/well. The plate was incubated for approximately 20-30 minutes at 37° C. Subsequently, the OD at 492 nm was measured on a Thermo Scientific Multiskan FC plate reader (Thermo Scientific). For quantification the background signal of ‘medium only’ wells was subtracted from all other wells, before the cell viability percentage of treated/untreated cells was calculated, by dividing the background corrected signal of treated wells over the background corrected signal of the untreated wells (×100).
(§2) Cells were seeded in a 96 well plate at 5.000-10.000 c/w in 100 μL/well and incubated overnight at 37° C. […] The media was removed from the cell culture plate and replaced by 180 μL culture media, followed by the addition of 20 μL treatment-mix/well. […]
(§3) After treatment the cells were incubated for 72 hr at 37° C. before the cell viability was determined by a MTS-assay, performed according to the manufacturer's instruction (CellTiter 96® AQueous One Solution Cell Proliferation Assay, Promega). […] Subsequently, the optical density at 492 nm was measured on a Thermo Scientific Multiskan FC plate reader (Thermo Scientific). For quantification the background signal of ‘medium only’ wells was subtracted from all other wells, before the ratio of […].

[2] = test system: SK-BR-3 cells; conditions: read-out: IC50 (calculated on concentration SO1861), + fixed 1.5 pM EGF-dianthin
Protocol: as §1, §2, §3

[3] = test system: CaSki cells
Protocol: (§4) Cells were seeded in a 96 well plate at 5.000-10.000 c/w in 100 μL/well and incubated overnight at 37° C. […] The media was removed from the cell culture plate and replaced by 180 μL culture media, followed by the addition of 20 μL treatment-mix/well. […] In the case that endosomal acidification inhibitors (chloroquine (Sigma Aldrich) or bafilomycin A1 (Enzo Life Sciences)) were used, the cell culture media in step 1 of treatment was replaced by 180 μL media containing 1 μM chloroquine or 0.2 μM bafilomycin A1. The plate was incubated for 1 hour at 37° C., before the 10× treatment-mix samples were added. The remaining incubation and treatment steps were performed according to standard procedures known in the field.
(§5) After treatment the cells were incubated for 72 hr at 37° C. before the cell viability was determined by a MTS-assay, performed according to the manufacturer's instruction (CellTiter 96® AQueous One Solution Cell Proliferation Assay, Promega). Briefly, the MTS solution was diluted 20× in DMEM without phenol red (PAN-Biotech GmbH) supplemented with 10% FBS (PAN-Biotech GmbH). The cells were washed once with 200 μL PBS per well, after which 100 μL diluted MTS solution was added per well. The plate was incubated for approximately 20-30 minutes at 37° C. Subsequently, the optical density at 492 nm was measured on a Thermo Scientific Multiskan FC plate reader (Thermo Scientific). For quantification the background signal of ‘medium only’ wells was subtracted from all other wells, before the ratio of […].

[4] = test system: HeLa cells; conditions: + 1500 nM SO1861 (unconjugated)
Protocol: as §4, §5

[5] = test system: JIMT-1 cells; conditions: + 1500 nM SO1861 (unconjugated)
Protocol: as §4, §5

[6] = read-out: IC50 (calculated on concentration SO1861), SO1861 or mAb-SO1861 titrated + fixed 50 pM trastuzumab-saporin

Row | Compound | IC50 ([1]; read-out: IC50 (calculated on concentration SO1861), + fixed 10 pM cetuximab-saporin) | IC50 [1, 6] | IC50 [2] | IC50 [3, 6] | IC50 ([3]; + 1500 nM SO1861 (unconjugated), read-out: IC50) | IC50 [4] | IC50 [5]
1 | CC(=O)O[C@H]1[C@H](O[C@@H]2OC[C@@H](O)[C@H](O)[C@H]2O)[C@@H](O)[C@H](O[C@@H]2[C@H](O)[C@@H](O[C@@H]3O[C@@H](C)[C@H](O[C@@H]4OC[C@@H](O)[C@H](O[C@@H]5OC[C@@H](O)[C@H](O)[C@H]5O)[C@H]4O)[C@@H](O)[C@H]3O)[C@H](OC(=O)[C@]34CCC(C)(C)C[C@H]3C3=CC[C@@H]5[C@@]6(C)CC[C@H](O[C@H]7O[C@H](C(=O)O)[C@@H](O)[C@H](O[C@@H]8OC[C@@H](O)[C@H](O)[C@H]8O)[C@H]7O[C@@H]7O[C@H](CO)[C@H](O)[C@H](O)[C@H]7O)[C@@](C)(C=O)[C@@H]6CC[C@@]5(C)[C@]3(C)C[C@H]4O)O[C@@H]2C)O[C@@H]1C [SO1861] | 600 nM | ≥ 1000 nM | 800 nM | ≥ 1000 nM | – | – | –
2 | Saporin | – | – | – | – | 0.015 nM | 0.03 nM | 0.03 nM
